Results reported in article PMC5502112 (Brain research, 2017).
Positions count from the first letter of the chain named.

How the values were obtained:
Assay in all cases: inside-out patch clamp, HEK293
Format in all cases: biochemical
Kir4.1 [1] = molecular target: T1, Kir4.1 (Rattus norvegicus, UniProt P49655, T128A); settings: read-out: % inhibition at 10 μM
T1 sequence (P49655 1-379 T128A): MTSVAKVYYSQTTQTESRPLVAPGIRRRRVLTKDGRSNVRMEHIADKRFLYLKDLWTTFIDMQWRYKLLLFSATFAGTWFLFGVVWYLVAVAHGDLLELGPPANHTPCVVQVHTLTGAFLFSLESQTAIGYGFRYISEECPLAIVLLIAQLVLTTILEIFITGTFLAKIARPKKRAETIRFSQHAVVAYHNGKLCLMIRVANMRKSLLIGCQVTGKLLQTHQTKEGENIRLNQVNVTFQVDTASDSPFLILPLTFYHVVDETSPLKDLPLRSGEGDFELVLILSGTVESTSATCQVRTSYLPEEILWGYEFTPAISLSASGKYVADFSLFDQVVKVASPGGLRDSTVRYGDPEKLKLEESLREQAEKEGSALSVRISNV

Kir4.1 [2] = molecular target: T2, Kir4.1 (Rattus norvegicus, UniProt P49655)
T2 sequence (P49655 1-379): T1 sequence (P49655 1-379 T128A) with A128T

Kir4.1 [3] = molecular target: T3, Kir4.1 (Rattus norvegicus, UniProt P49655, E158N); settings: read-out: % inhibition at 10 μM
T3 sequence (P49655 1-379 E158N): T1 sequence (P49655 1-379 T128A) with A128T, E158N

Kir4.1 [4] = molecular target: T4, Kir4.1 (Rattus norvegicus, UniProt P49655, T127A); settings: read-out: % inhibition at 10 μM
T4 sequence (P49655 1-379 T127A): T1 sequence (P49655 1-379 T128A) with T127A, A128T

Kir4.1 [5] = molecular target: T2, Kir4.1; settings: read-out: % inhibition at 10 μM

Work on `CCN(CC)CCCC(C)Nc1c2ccc(Cl)cc2nc2ccc(OC)cc12` (centres unmarked) [quinacrine] yielded an inhibition at 10 µM (Kir4.1 [1]) of 66.1 ± 1.1%, an IC50 (Kir4.1 [2]) of 1.8 ± 0.3 µM and an inhibition at 10 µM (Kir4.1 [3]) of 79.8 ± 2.2%. The inhibition at 10 µM (Kir4.1 [4]) was 89.7 ± 1.1% and the inhibition at 10 µM (Kir4.1 [5]) was 88.3 ± 1.5%.
